Assays:
hTopII = biological target: T1, hTopII (Homo sapiens, UniProt P11388); assay: Detection of hTOP2α cleavage complexes (cleavage assay); assay type: cell-based; conditions: 100 μM
T1 construct: endogenous in cells
Method: After compound treatments, 1 × 10^6 human cells in 35 mm dish per sample were washed with 1× phosphate-buffered saline (PBS) and lysed with 600 μL of DNAzol (Invitrogen), followed by precipitation with 300 μL of 200 proof ethanol. The nucleic acids were collected, washed with 75% ethanol, resuspended in 200 μL of TE buffer, and then heated at 65 °C for 15 min, followed by shearing with sonication (40% output for 10 s pulse and 10 s rest for four times). The samples were centrifuged at 15 000 rpm for 5 min at 4 °C, and the supernatant were collected. 1 μL of each sample was removed for spectrophotometric measurement of absorbance at 260 nm to quantitate DNA content (NanoDrop). 2 μg of each sample was subjected to slot-blot for immunoblotting using anti-hTOP1 antibody (BD Pharmingen, 556597) and anti-hTOP2α antibody (Santa Cruz biotechnology, 365916).[51]

[1] = system: shRNA to siRNA maturation (GAPDH mRNA); assay: RNAi enhancing activity (shRNA to siRNA maturation, GAPDH mRNA in HEK-293T_shGAPDH); assay type: cell-based, human; conditions: 50 μM, 48 hours
Method: HEK-293T_shSCR and HEK-293T_shGAPDH were treated with 50 μM of enoxacin and 33 for 48 hours before RNA extraction and expression analysis.
Lentiviral particles were produced by calcium phosphate transient transfection of HEK-293T cells with specific lentiviral plasmids (shGAPDH: TRCN0000445616 and shSCR: TRCN0000015937 from SIGMA-ALDRICH) together with the packaging plasmids (pLP1and pLP2) and the envelope plasmid pLP/VSVG. For each lentiviral plasmid one 150 mm plate of HEK293T cells was used for transfection. After 14–16 hours the medium was replaced with complete medium supplemented with 1 mM sodium butyrate (SIGMA-ALDRICH). The collection of medium containing lentiviral particles occurs 48 h and 72 h after transfection; complete medium supplemented with sodium butyrate was added after the first collection. […]
Total RNA was extracted using the Direct-zol RNA MiniPrep kit (Zymo Research) with on-column DNase treatment, according to the manufacturer's instructions. Reverse transcription was carried out with SuperScript VILO cDNA Synthesis Kit (Life Technologies) and the cDNA samples were analyzed by qRT-PCR using PowerUp SYBR Green Master Mix (Thermo Fisher Scientific). For miR-21 expression analysis total RNA was retrotranscribed using miRCURY® LNA® RT Kit (Qiagen) and the cDNA was analyzed by using miRCURY® LNA® miRNA PCR Assay (Qiagen). […]

KO TRBP SK-Hep-1 cells = assay: Antiproliferative effect on KO TRBP SK-Hep-1 cells (CCK-8); assay type: cell-based, human; conditions: 48 hours
Method: HCCLM3 and SK-Hep-1 cells were seeded into 96-well plates at a density of 10 000 cells per well and allowed to adhere overnight. Subsequently, the cells were treated with the following substances: 0.1% DMSO as the negative control, various concentrations of the test compounds, and 125 μM enoxacin as the positive control. After 48 h of incubation, the original culture medium was removed, and the cells were washed twice with PBS. Then, 100 μL of DMEM culture medium containing 10% CCK-8 (Bimake, USA) was added to each well. The plates were incubated for 30 minutes at 37 °C. To determine the […], measurements were taken at a wavelength of 450 nm using a Varioskan from Thermo Fisher Scientific.

TRBP = biological target: T2, TRBP (Homo sapiens, UniProt Q15633); assay: Cellular thermal shift assay of TRBP (HEK-293T lysates, Western blot); assay type: binding; parameters: endogenous in cells; host or cells: HEK-293T
T2 sequence (Q15633 1-366): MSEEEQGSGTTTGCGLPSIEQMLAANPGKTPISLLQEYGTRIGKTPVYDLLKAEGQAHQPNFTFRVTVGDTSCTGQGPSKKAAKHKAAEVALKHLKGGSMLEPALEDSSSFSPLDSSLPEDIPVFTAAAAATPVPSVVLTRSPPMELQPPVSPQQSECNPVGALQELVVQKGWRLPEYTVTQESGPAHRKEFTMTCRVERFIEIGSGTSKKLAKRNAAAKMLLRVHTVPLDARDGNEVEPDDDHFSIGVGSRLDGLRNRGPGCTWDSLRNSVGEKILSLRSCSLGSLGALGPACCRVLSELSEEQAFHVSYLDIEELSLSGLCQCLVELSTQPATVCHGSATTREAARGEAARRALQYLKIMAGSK
Method: HEK-293T cells were harvested in PBS supplemented with protease inhibitor cocktail (complete, EDTA-free, Roche). Cell suspensions were freeze-thawed three times in liquid nitrogen and then centrifuged (20 000g) for 10 min at 4 °C. The lysates were diluted at concentration of 2 μg μL^−1 and then treated with DMSO and 50 μM of 33 or with increasing concentration of 33 for 30 min at 37 °C. After this incubation the lysates were divided into equal parts (50 μL) and heated individually at designated temperatures for 3 min. The heated samples were cooled at room temperature for 3 min and centrifuged (20 000g) for 10 min at 4 °C. The supernatants were transferred to new tubes and analyzed by use for western blotting.
Lysates were loaded on 4–12% bis–tris-acrylamide gel (Life Technologies) and transferred to a nitrocellulose membrane. The membrane was blocked in 5% milk and hybridized with α-TRBP (15753-1-AP Proteintech), α-GAPDH (sc-25778, Santa Cruz Biotechnology), α-c-PARP (Bioss Antibodies, BSM-52408R), α-BCLXL (mAb #2764, Cell Signaling Technology) and α-β-actin (A3854, Sigma) antibodies. All the images were captured using the ChemiDocTM Touch Imaging System (Bio-Rad), and the densitometric analyses were performed using the associated Image Lab software (Bio-Rad).

T1 sequence (P11388 whole entry): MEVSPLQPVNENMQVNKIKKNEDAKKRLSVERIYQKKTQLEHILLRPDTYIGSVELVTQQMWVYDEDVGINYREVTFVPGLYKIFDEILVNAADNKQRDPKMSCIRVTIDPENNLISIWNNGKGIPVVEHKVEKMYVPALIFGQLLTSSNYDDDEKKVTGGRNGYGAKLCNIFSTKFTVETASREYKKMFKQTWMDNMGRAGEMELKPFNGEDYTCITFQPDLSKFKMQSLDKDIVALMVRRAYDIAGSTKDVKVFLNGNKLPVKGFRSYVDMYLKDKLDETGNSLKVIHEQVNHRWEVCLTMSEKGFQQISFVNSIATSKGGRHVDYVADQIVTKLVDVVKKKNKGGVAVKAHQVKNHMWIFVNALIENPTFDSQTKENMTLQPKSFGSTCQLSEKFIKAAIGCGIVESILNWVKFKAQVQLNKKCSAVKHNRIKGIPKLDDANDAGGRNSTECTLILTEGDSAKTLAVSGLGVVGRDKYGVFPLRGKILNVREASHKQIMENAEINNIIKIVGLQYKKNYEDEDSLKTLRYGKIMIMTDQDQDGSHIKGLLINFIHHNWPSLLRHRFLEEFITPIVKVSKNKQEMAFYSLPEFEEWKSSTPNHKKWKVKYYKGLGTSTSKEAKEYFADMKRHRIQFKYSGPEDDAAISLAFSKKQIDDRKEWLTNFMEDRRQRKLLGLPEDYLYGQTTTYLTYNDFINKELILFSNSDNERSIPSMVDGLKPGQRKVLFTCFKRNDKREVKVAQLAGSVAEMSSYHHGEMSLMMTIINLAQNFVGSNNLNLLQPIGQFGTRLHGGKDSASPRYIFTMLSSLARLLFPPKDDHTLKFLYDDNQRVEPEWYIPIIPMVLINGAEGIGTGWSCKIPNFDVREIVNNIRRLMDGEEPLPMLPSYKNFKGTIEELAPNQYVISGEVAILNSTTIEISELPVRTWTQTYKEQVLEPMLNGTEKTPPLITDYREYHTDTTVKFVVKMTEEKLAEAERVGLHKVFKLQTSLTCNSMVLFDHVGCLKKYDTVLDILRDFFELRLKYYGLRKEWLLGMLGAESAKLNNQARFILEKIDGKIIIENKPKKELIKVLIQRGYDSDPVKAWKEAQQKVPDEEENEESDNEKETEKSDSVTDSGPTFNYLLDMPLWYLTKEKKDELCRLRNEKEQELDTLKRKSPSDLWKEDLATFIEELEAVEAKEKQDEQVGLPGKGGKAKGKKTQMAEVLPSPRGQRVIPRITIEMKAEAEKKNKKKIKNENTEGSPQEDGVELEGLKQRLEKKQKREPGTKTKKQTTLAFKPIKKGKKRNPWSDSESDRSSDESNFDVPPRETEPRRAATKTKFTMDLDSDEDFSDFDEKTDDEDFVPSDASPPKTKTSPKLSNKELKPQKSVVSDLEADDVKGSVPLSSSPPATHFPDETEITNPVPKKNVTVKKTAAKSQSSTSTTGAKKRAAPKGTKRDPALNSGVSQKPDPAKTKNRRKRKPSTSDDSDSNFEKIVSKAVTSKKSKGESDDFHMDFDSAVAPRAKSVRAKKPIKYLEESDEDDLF

trapping/inhibition of hTopII (cleavage assay) (hTopII): no inhibition or trapping activity
thermal shift of TRBP versus DMSO (TRBP; 50 μM, different temperatures): significant thermal shift
Compound: O=C(O)c1cn(C2CC2)c2cc(N3CCc4ccccc4C3)c(F)cc2c1=O [Compound 33, 1-Cyclopropyl-7-(3,4-dihydroisoquinolin-2(1H)-yl)-6-fluoro-4-oxo-1,4-dihydroquinoline-3-carboxylic acid]
RNAi enhancing effect (GAPDH mRNA decrease) [1]: modest but significant RNAi enhancing effect
antiproliferative effect on KO TRBP SK-Hep-1 cells (KO TRBP SK-Hep-1 cells; 30 μM): no antiproliferative effect
viability of KO TRBP SK-Hep-1 cells (KO TRBP SK-Hep-1 cells; 50 μM): not affecting
concentration dependency of TRBP destabilization (TRBP; increasing concentration, 55 °C): destabilization of TRBP in a concentration-dependent manner

From article PMC11467779, “New anti-ovarian cancer quinolone derivatives acting by modulating microRNA processing machinery” (RSC Medicinal Chemistry, 2024)
